Data: US12509460B2 (Skyhawk Therapeutics, Inc., priority 2019, dated 2025)
Read-outs that look alike come from different tables or passages of the source.

Assays:
[1] = tested on: mHTT protein in GM04724 (CAG 70/20) Huntington's disease patient lymphoblast cells; assay: mHTT protein assay, 2B7-MW1 assay via Mesoscale Discovery (MSD); type: cell-based, human
Outline: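 Signal from the 2B7-MW1 antibody pair on MSD, rising with polyQ length and smaller HTT fragments, measured mHTT after 48 h compound exposure (0.6 nM–10 μM) in GM04724 cells. A parallel replicate plate gave CellTiter Glo viability.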

[2] = tested on: SMN protein in spinal muscular atrophy (SMA) patient fibroblasts (GM03813, Coriell); assay: SMN protein assay, Mesoscale Discovery (MSD); type: cell-based, human; conditions: for EC50: read-out: SMN2 protein EC50
Outline: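 Absolute SMN levels were quantified by MSD against an SMN protein standard curve (1 μg/ml to 19.5 pg/ml) run on each plate. Samples were lysates of GM03813 patient fibroblasts (7000 cells/well) treated 48 hours with compound doses from 2.5 μM down to 0.6 nM.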

[3] = tested on: MDR1-MDCK cell monolayers; conditions: dog, MDCK-MDR1, 120 min, 5 μM, pH 7.4
[4] = tested on: MDR1 (P-gp); assay: in vitro; conditions: dog, MDCK-MDR1, pH 7.4
[5] = tested on: MDR1; assay: in vitro; conditions: dog, MDCK-MDR1, pH 7.4
[6] = GM04724 Huntington's disease patient lymphoblasts
[7] = SMA patient fibroblasts GM03813, 48 hours, MSD
[8] = GM04724 (CAG 70/20) Huntington's disease patient lymphoblasts
[9] = SMA patient fibroblasts (GM03813), 48 hours

SMILES | mHTT protein EC50 [1, 6] | SMN2 protein EC50 [2, 7] | MDCK-MDR1: % Recov A-B [3] [%] | MDCK-MDR1: % Recov B-A [3] [%] | Papp A→B at 120 min, 5 μM [4] [×10⁻⁶ cm/s] | Papp B→A at 120 min, 5 μM [4] [×10⁻⁶ cm/s] | efflux ratio at 120 min, 5 μM [5] | mHTT protein EC50 [1, 8] | SMN2 protein EC50 [2, 9] | EC50 [1, 6] [nM] | EC50 [2, 7] [nM] | EC50 [2, 9] [nM] | EC50 [1, 8] [nM]
CN(c1ccc(-c2cc3cc[nH]c(=O)c3s2)nn1)[C@@H]1C[C@H]2CC[C@H](N2)[C@@H]1F (single isomer, unassigned) [Compound 66A] | E (501 ≤ E ≤ 10.000) | E (501 ≤ E ≤ 10.000) | 93 | 100 | 0.09 | 4.4 | 51 |  |  |  |  |  | 
CN(c1ccc(-c2ccc(Oc3nccn3C)cc2O)nn1)[C@@H]1C[C@H]2CC[C@H](N2)[C@@H]1F (single isomer, unassigned) [Compound 123A] |  |  | 97 | 102 | 0.76 | 59.7 | 79 | E (501 ≤ E ≤ 10.000) | E (501 ≤ E ≤ 10.000) |  |  |  | 
CN1[C@@H]2CC[C@H]1[C@H](F)[C@H](N(c1ccc(-c3cc4ncn(CC(F)(F)F)c(=O)c4cc3O)nn1)C1CC1)C2 (single isomer, unassigned) [Compound 111A] |  |  | 90 | 83 | 0.89 | 44.3 | 45 | E (501 ≤ E ≤ 10.000) | E (501 ≤ E ≤ 10.000) |  |  |  | 
O=C(c1cc2cc(O)c(-c3ccc(N(C4CC4)[C@@H]4C[C@H]5CC[C@H](N5)[C@@H]4F)nn3)cc2o1)N1CCC1 [Compound 57A, azetidin-1-yl(6-(6-(cyclopropyl((1S,2S,3R,5R)-2-fluoro-8-azabicyclo[3.2.1]octan-3-yl)amino)pyridazin-3-yl)-5-hydroxybenzofuran-2-yl)methanone] | E (501 ≤ E ≤ 10.000) | E (501 ≤ E ≤ 10.000) | 89 | 104 | 0.78 | 63.2 | 80 |  |  |  |  |  | 
CN(c1ccc(-c2ccc(-n3ccnc3)cc2O)nn1)[C@H]1C[C@@H]2CC(F)(F)[C@H](C1)N2 [Compound 13B, 2-(6-(((1R,3S,5S)-6,6-difluoro-8-azabicyclo[3.2.1]octan-3-yl)(methyl)amino)pyridazin-3-yl)-5-(1H-imidazol-1-yl)phenol] |  | E (501 ≤ E ≤ 10.000) | 90 | 97 | 9.96 | 55.7 | 6 |  |  | 101 to 500 |  |  | 
Cc1nc2cc(O)c(-c3ccc(N(C)[C@@H]4C[C@H]5CC[C@H](N5)C4F)nn3)cc2o1 (stereo in doubt) [Compound 40A, 6-(6-(((1S,2R,3R,5R)-2-fluoro-8-azabicyclo[3.2.1]octan-3-yl)(methyl)amino)pyridazin-3-yl)-2-methylbenzo[d]oxazol-5-ol] |  | E (501 ≤ E ≤ 10.000) | 62 | 92 | 3.68 | 57.9 | 16 |  |  | 101 to 500 |  |  | 
CN(c1ccc(-c2cn3c(=O)ccnc3cc2O)nn1)[C@H]1C[C@@H]2CC[C@@H](N2)[C@H]1F (single isomer, unassigned) [Compound 82B] | E (501 ≤ E ≤ 10.000) |  | 72 | 110 | < 0.21 | 3.28 | > 15 |  |  |  | 101 to 500 |  | 
CCc1cn(-c2ccc(-c3ccc(N(C)[C@@H]4C[C@H]5CC(F)(F)[C@@H](C4)N5)nn3)c(O)c2)nn1 (single isomer, unassigned) [Compound 64A] | E (501 ≤ E ≤ 10.000) | E (501 ≤ E ≤ 10.000) | 64 | 78 | 7.18 | 52.2 | 7 |  |  |  |  |  | 
Cc1cc(=O)c2cc(O)c(-c3ccc(N(C)[C@@H]4C[C@H]5CC[C@@H]([C@@H]4F)N5C)nn3)cc2o1 [Compound 99A, 7-(6-(((1S,2S,3R,5R)-2-fluoro-8-methyl-8-azabicyclo[3.2.1]octan-3-yl)(methyl)amino)pyridazin-3-yl)-6-hydroxy-2-methyl-4H-chromen-4-one] |  |  | 114 | 91 | 2 | 36.3 | 18 | E (501 ≤ E ≤ 10.000) |  |  |  | 101 to 500 | 
CN(c1ccc(-c2cc3cc[nH]c(=O)c3s2)nn1)[C@H]1C[C@@H]2CC[C@@H](N2)[C@H]1F (single isomer, unassigned) [Compound 66B] | E (501 ≤ E ≤ 10.000) | E (501 ≤ E ≤ 10.000) | 98 | 98 | 0.07 | 4.64 | 68 |  |  |  |  |  | 
Cc1nc2cc(-c3ccc(N(C)[C@@H]4C[C@H]5CC[C@@H]([C@@H]4F)N5C)nn3)c(O)cc2c(=O)n1C [Compound 105A, 7-(6-(((1S,2S,3R,5R)-2-fluoro-8-methyl-8-azabicyclo[3.2.1]octan-3-yl)(methyl)amino)pyridazin-3-yl)-6-hydroxy-2,3-dimethylquinazolin-4(3H)-one] |  |  | 105 | 115 | 0.58 | 56.9 | 99 |  |  |  |  | 101 to 500 | 101 to 500
CN(c1ccc(-c2cc3occc(=O)c3cc2O)nn1)[C@@H]1C[C@H]2CC[C@@H]([C@@H]1F)N2C (single isomer, unassigned) [Compound 94A] | E (501 ≤ E ≤ 10.000) |  | 68 | 71 | 4.99 | 33.9 | 7 |  |  |  | 101 to 500 |  | 
CNC(=O)c1cc(O)c(-c2ccc(N(C)[C@H]3C[C@@H]4CC[C@H]([C@H]3F)N4C)nn2)cc1F (single isomer, unassigned) [Compound 96B] | E (501 ≤ E ≤ 10.000) | E (501 ≤ E ≤ 10.000) | 92 | 98 | 2.72 | 55.2 | 20 |  |  |  |  |  | 
CN(c1ccc(-c2cc3ncn(CC(F)(F)F)c(=O)c3cc2O)nn1)[C@H]1C[C@@H]2CC[C@H]([C@H]1F)N2C (single isomer, unassigned) [Compound 108B] |  |  | 102 | 101 | 0.98 | 59.5 | 61 | E (501 ≤ E ≤ 10.000) | E (501 ≤ E ≤ 10.000) |  |  |  | 
CN(c1ccc(-c2cc3cccnc3cc2O)nn1)[C@H]1C[C@@H]2CC(F)(F)[C@H](C1)N2 [Compound 45B, 6-(6-(((1R,3S,5S)-6,6-difluoro-8-azabicyclo[3.2.1]octan-3-yl)(methyl)amino)pyridazin-3-yl)quinolin-7-ol] | E (501 ≤ E ≤ 10.000) | E (501 ≤ E ≤ 10.000) | 95 | 111 | 10.2 | 45.3 | 4 |  |  |  |  |  | 
CN(c1ccc(-c2ccc(C(F)F)cc2O)nn1)[C@@H]1C[C@H]2CC[C@H](N2)[C@@H]1F (single isomer, unassigned) [Compound 120A] |  |  | 76 | 74 | 4.59 | 34.8 | 8 | E (501 ≤ E ≤ 10.000) | E (501 ≤ E ≤ 10.000) |  |  |  | 
CN(c1ccc(-c2cc3occc(=O)c3cc2O)nn1)[C@H]1C[C@@H]2CC[C@H]([C@H]1F)N2C (single isomer, unassigned) [Compound 94B] | E (501 ≤ E ≤ 10.000) |  | 73 | 83 | 4.47 | 41.2 | 9 |  |  |  | 101 to 500 |  | 
CN(c1ccc(-c2cc(C#N)ccc2O)nn1)[C@@H]1C[C@H]2CC[C@H](N2)[C@@H]1F (single isomer, unassigned) [Compound 70A] | E (501 ≤ E ≤ 10.000) |  | 86 | 89 | 3.17 | 60.2 | 19 |  |  |  | 101 to 500 |  | 
CN(c1ccc(-c2cnc(C#N)cc2O)nn1)[C@@H]1C[C@H]2CC[C@H](N2)[C@@H]1F (single isomer, unassigned) [Compound 71A] | E (501 ≤ E ≤ 10.000) | E (501 ≤ E ≤ 10.000) | 88 | 92 | 3.87 | 26.2 | 7 |  |  |  |  |  | 
